Patent US20260200939A1, “MOLECULAR GLUE DEGRADER COMPOUNDS AND USES THEREOF” (Novartis AG, priority 2022, published 2026)

Experiments:
BRD4 short = target: T1, BRD4 short (Homo sapiens, UniProt O60885); experiment: BRD4 (short) degradation assay, Western blotting; format: cell-based
T1 construct: endogenous in cells; host or cells: HEK293T
Description: (§1) C33A cells were purchased from American Type Culture Collection (ATCC) and were cultured in Dulbecco's Modified Eagle Medium (DMEM) containing 10% (v/v) fetal bovine serum (FBS) and maintained at 37° C. with 5% CO2. 22RV1 cells were purchased from the ATCC and were cultured in RPMI-1640 Medium containing 10% (v/v) FBS and maintained at 37° C. with 5% CO2. HEK293T cells were obtained from the UC Berkeley Cell Culture Facility and were cultured in DMEM containing 10% (v/v) FBS and maintained at 37° C. with 5% CO2. K562 cells were obtained from the UC Berkeley Cell Culture Facility and were cultured in Iscove's Modified Dulbecco's Medium (IMDM) containing 10% (v/v) FBS and maintained at 37° C. with 5% CO2. MV-4-11 cells were obtained from the ATCC and were cultured in IMDM containing 10% (v/v) FBS and maintained at 37° C. with 5% CO2. A549 cells were obtained from the ATCC and were cultured in F-12K Medium containing 10% (v/v) FBS and maintained at 37° C. with 5% CO2. Mino cells were obtained from the ATCC and were cultured in RPMI-1640 Medium containing 10% (v/v) FBS and maintained at 37° C. with 5% CO2. LNCaP cells were obtained from the ATCC and were cultured in RPMI-1640 Medium containing 10% (v/v) FBS and maintained at 37° C. with 5% CO2. Unless otherwise specified, all cell culture materials were purchased from Gibco. It is not known whether HEK293T cells are from male or female origin.
(§2) Cells were washed twice with cold PBS, scraped, and pelleted by centrifugation (700 g, 5 min, 4° C.). Pellets were resuspended in PBS, sonicated, clarified by centrifugation (12,000 g, 10 min, 4° C.), and lysate was transferred to new low-adhesion microcentrifuge tubes. Proteome concentrations were determined using BCA assay and lysate was diluted to appropriate working concentrations.
(§3) Proteins were resolved by SDS/PAGE and transferred to nitrocellulose membranes using the Trans-Blot Turbo transfer system (Bio-Rad). Membranes were blocked with 5% BSA in Tris-buffered saline containing Tween 20 (TBS-T) solution for 30 min at RT, washed in TBS-T, and probed with primary antibody diluted in recommended diluent per manufacturer overnight at 4° C. After 3 washes with TBS-T, the membranes were incubated in the dark with IR680- or IR800-conjugated secondary antibodies at 1:10,000 dilution in 5% BSA in TBS-T at RT for 1 h. After 3 additional washes with TBST, blots were visualized using an Odyssey Li-Cor fluorescent scanner. The membranes were stripped using ReBlot Plus Strong Antibody Stripping Solution (EMD Millipore) when additional primary antibody incubations were performed. Antibodies used in this study were CDK4 (Abcam ab108357), Vinculin (Abcam ab129002), GAPDH (Cell Signaling Technology 14C10), RNF126 (Santa Cruz Biotechnology sc-376005), BRD4 (Abcam ab128874), Beta Actin (Cell Signaling Technology 13E5), PDE5 (Abcam ab259945), AR-V7 (Abcam ab273500), c-Abl (Santa Cruz Biotechnology sc-23), SMARCA2 (Abcam ab240648), LRRK2 (Abcam ab133474), BTK (Cell Signaling Technology D3H5), Androgen Receptor (Abcam ab133273).

BRD4 long = target: T2, BRD4 long (Homo sapiens, UniProt O60885); experiment: BRD4 (long) degradation assay, Western blotting; format: cell-based
T2 construct: endogenous in cells; host or cells: HEK293T
Description: as §1, §2, §3

[1] = second value of cell (long/short)
[2] = first value of cell (long/short)
[3] = first value of cell, range with lower bound in nM and upper bound in μM
[4] = second value of cell, range with lower bound in nM and upper bound in μM

SMILES: Cc1sc2c(c1C)C(c1ccc(Cl)cc1)=N[C@@H](CC(=O)N1CCN(C(=O)/C=C/C(=O)c3ccc4c(c3)CCO4)CC1)c1nnc(C)n1-2 [Compound 210, (S,E)-1-(4-(2-(4-(4-chlorophenyl)-2,3,9-trimethyl-6H-thieno[3,2-f][1,2,4]triazolo[4,3-a][1,4]diazepin-6-yl)acetyl)piperazin-1-yl)-4-(2,3-dihydrobenzofuran-5-yl)but-2-ene-1,4-dione]
- DC50 (BRD4 short; [1]): < 100 nM
- DC50 (BRD4 long; [2]): < 100 nM

SMILES: Cc1sc2c(c1C)C(c1ccc(Cl)cc1)=N[C@@H](CC(=O)N[C@H]1C[C@H](NC(=O)/C=C/C(=O)c3ccc4c(c3)CCO4)C1)c1nnc(C)n1-2 [Compound 211, (E)-N-((1S,3r)-3-(2-((S)-4-(4-chlorophenyl)-2,3,9-trimethyl-6H-thieno[3,2-f][1,2,4]triazolo[4,3-a][1,4]diazepin-6-yl)acetamido)cyclobutyl)-4-(2,3-dihydrobenzofuran-5-yl)-4-oxobut-2-enamide]
- DC50 (BRD4 short; [1]): 10 to 100 nM
- DC50 (BRD4 long; [2]): 10 to 100 nM

SMILES: COc1ccc(C(=O)/C=C/C(=O)N2C[C@H]3CN(C(=O)C[C@@H]4N=C(c5ccc(Cl)cc5)c5c(sc(C)c5C)-n5c(C)nnc54)[C@H]3C2)cc1 [Compound 212, (E)-1-((1S,5R)-6-(2-((S)-4-(4-chlorophenyl)-2,3,9-trimethyl-6H-thieno[3,2-f][1,2,4]triazolo[4,3-a][1,4]diazepin-6-yl)acetyl)-3,6-diazabicyclo[3.2.0]heptan-3-yl)-4-(4-methoxyphenyl)but-2-ene-1,4-dione]
- DC50 (BRD4 short; [1]): 10 to 100 nM
- DC50 (BRD4 long; [3]): 100 to 1000 nM

SMILES: COc1ccc(C(=O)/C=C/C(=O)N2C[C@@H]3CN(C(=O)C[C@@H]4N=C(c5ccc(Cl)cc5)c5c(sc(C)c5C)-n5c(C)nnc54)[C@@H]3C2)cc1 [Compound 213, (E)-1-((1R,5S)-6-(2-((S)-4-(4-chlorophenyl)-2,3,9-trimethyl-6H-thieno[3,2-f][1,2,4]triazolo[4,3-a][1,4]diazepin-6-yl)acetyl)-3,6-diazabicyclo[3.2.0]heptan-3-yl)-4-(4-methoxyphenyl)but-2-ene-1,4-dione]
- DC50 (BRD4 short; [4]): 100 to 1000 nM
- DC50 (BRD4 long; [3]): 100 to 1000 nM

SMILES: COc1ccc(C(=O)/C=C/C(=O)N2CCN(C(=O)C[C@@H]3N=C(c4ccc(Cl)cc4)c4c(sc(C)c4C)-n4c(C)nnc43)C[C@@H]2C)cc1 [Compound 214, (E)-1-((S)-4-(2-((S)-4-(4-chlorophenyl)-2,3,9-trimethyl-6H-thieno[3,2-f][1,2,4]triazolo[4,3-a][1,4]diazepin-6-yl)acetyl)-2-methylpiperazin-1-yl)-4-(4-methoxyphenyl)but-2-ene-1,4-dione]
- DC50 (BRD4 short; [1]): 10 to 100 nM
- DC50 (BRD4 long; [2]): 10 to 100 nM

SMILES: COc1ccc(C(=O)/C=C/C(=O)N2[C@H](C)CN(C(=O)C[C@@H]3N=C(c4ccc(Cl)cc4)c4c(sc(C)c4C)-n4c(C)nnc43)C[C@@H]2C)cc1 [Compound 215, (E)-1-((2S,6R)-4-(2-((S)-4-(4-chlorophenyl)-2,3,9-trimethyl-6H-thieno[3,2-f][1,2,4]triazolo[4,3-a][1,4]diazepin-6-yl)acetyl)-2,6-dimethylpiperazin-1-yl)-4-(4-methoxyphenyl)but-2-ene-1,4-dione]
- DC50 (BRD4 short; [1]): 10 to 100 nM
- DC50 (BRD4 long; [2]): < 10 nM

SMILES: COc1ccc(C(=O)/C=C/C(=O)N2CCN(C(=O)C[C@@H]3N=C(c4ccc(Cl)cc4)c4c(sc(C)c4C)-n4c(C)nnc43)[C@@H](C)C2)cc1 [Compound 216, (E)-1-((S)-4-(2-((S)-4-(4-chlorophenyl)-2,3,9-trimethyl-6H-thieno[3,2-f][1,2,4]triazolo[4,3-a][1,4]diazepin-6-yl)acetyl)-3-methylpiperazin-1-yl)-4-(4-methoxyphenyl)but-2-ene-1,4-dione]
- DC50 (BRD4 short; [1]): < 10 nM
- DC50 (BRD4 long; [2]): < 10 nM

SMILES: COc1ccc(C(=O)/C=C/C(=O)N2CCN(C(=O)C[C@@H]3N=C(c4ccc(Cl)cc4)c4c(sc(C)c4C)-n4c(C)nnc43)C[C@H]2C)cc1 [Compound 217, (E)-1-((R)-4-(2-((S)-4-(4-chlorophenyl)-2,3,9-trimethyl-6H-thieno[3,2-f][1,2,4]triazolo[4,3-a][1,4]diazepin-6-yl)acetyl)-2-methylpiperazin-1-yl)-4-(4-methoxyphenyl)but-2-ene-1,4-dione]
- DC50 (BRD4 short; [1]): < 10 nM
- DC50 (BRD4 long; [2]): < 10 nM

SMILES: COc1ccc(C(=O)/C=C/C(=O)N2CCN(C(=O)C[C@@H]3N=C(c4ccc(Cl)cc4)c4c(sc(C)c4C)-n4c(C)nnc43)[C@H](C)C2)cc1 [Compound 218, (E)-1-((R)-4-(2-((S)-4-(4-chlorophenyl)-2,3,9-trimethyl-6H-thieno[3,2-f][1,2,4]triazolo[4,3-a][1,4]diazepin-6-yl)acetyl)-3-methylpiperazin-1-yl)-4-(4-methoxyphenyl)but-2-ene-1,4-dione]
- DC50 (BRD4 short; [1]): < 10 nM
- DC50 (BRD4 long; [2]): < 10 nM

SMILES: COc1ccc(C(=O)/C=C/C(=O)N2CCCN(C(=O)C[C@@H]3N=C(c4ccc(Cl)cc4)c4c(sc(C)c4C)-n4c(C)nnc43)CC2)cc1 [Compound 219, (S,E)-1-(4-(2-(4-(4-chlorophenyl)-2,3,9-trimethyl-6H-thieno[3,2-f][1,2,4]triazolo[4,3-a][1,4]diazepin-6-yl)acetyl)-1,4-diazepan-1-yl)-4-(4-methoxyphenyl)but-2-ene-1,4-dione]
- DC50 (BRD4 short; [4]): 100 to 1000 nM
- DC50 (BRD4 long; [3]): 100 to 1000 nM

SMILES: COc1ccc(C(=O)/C=C/C(=O)N2CCN(C(=O)C[C@@H]3N=C(c4ccc(Cl)cc4)c4c(sc(C)c4C)-n4c(C)nnc43)CC23CC3)cc1 [Compound 221, (S,E)-1-(7-(2-(4-(4-chlorophenyl)-2,3,9-trimethyl-6H-thieno[3,2-f][1,2,4]triazolo[4,3-a][1,4]diazepin-6-yl)acetyl)-4,7-diazaspiro[2.5]octan-4-yl)-4-(4-methoxyphenyl)but-2-ene-1,4-dione]
- DC50 (BRD4 short; [1]): 10 to 100 nM
- DC50 (BRD4 long; [2]): 10 to 100 nM

SMILES: COc1ccc(C(=O)/C=C/C(=O)NC2CC(NC(=O)C[C@@H]3N=C(c4ccc(Cl)cc4)c4c(sc(C)c4C)-n4c(C)nnc43)C2)cc1 (some centres unmarked) [Compound 222]
- DC50 (BRD4 short; [1]): 1 to 10 nM
- DC50 (BRD4 long; [2]): 1 to 10 nM

SMILES: COc1ccc(C(=O)/C=C/C(=O)N[C@H]2C[C@H](NC(=O)C[C@@H]3N=C(c4ccc(Cl)cc4)c4c(sc(C)c4C)-n4c(C)nnc43)C2)cc1 [Compound 223, (E)-N-((1S,3r)-3-(2-((S)-4-(4-chlorophenyl)-2,3,9-trimethyl-6H-thieno[3,2-f][1,2,4]triazolo[4,3-a][1,4]diazepin-6-yl)acetamido)cyclobutyl)-4-(4-methoxyphenyl)-4-oxobut-2-enamide]
- DC50 (BRD4 short; [1]): 12 nM
- DC50 (BRD4 long; [2]): 8 nM

SMILES: COc1ccc(C(=O)/C=C/C(=O)N2CCC3(CCN(C(=O)C[C@@H]4N=C(c5ccc(Cl)cc5)c5c(sc(C)c5C)-n5c(C)nnc54)C3)C2)cc1 (stereo partly drawn) [Compound 224, (E)-1-(7-(2-((S)-4-(4-chlorophenyl)-2,3,9-trimethyl-6H-thieno[3,2-f][1,2,4]triazolo[4,3-a][1,4]diazepin-6-yl)acetyl)-2,7-diazaspiro[4.4]nonan-2-yl)-4-(4-methoxyphenyl)but-2-ene-1,4-dione]
- DC50 (BRD4 short; [1]): 1 to 10 nM
- DC50 (BRD4 long; [2]): 1 to 10 nM

SMILES: COc1ccc(C(=O)/C=C/C(=O)N2CC3CCN(C(=O)C[C@@H]4N=C(c5ccc(Cl)cc5)c5c(sc(C)c5C)-n5c(C)nnc54)CC3C2)cc1 (stereo partly drawn) [Compound 225, (E)-1-(5-(2-((S)-4-(4-chlorophenyl)-2,3,9-trimethyl-6H-thieno[3,2-f][1,2,4]triazolo[4,3-a][1,4]diazepin-6-yl)acetyl)octahydro-2H-pyrrolo[3,4-c]pyridin-2-yl)-4-(4-methoxyphenyl)but-2-ene-1,4-dione]
- DC50 (BRD4 short; [4]): 100 to 1000 nM
- DC50 (BRD4 long; [2]): < 10 nM

SMILES: COc1ccc(C(=O)/C=C/C(=O)N2CC3CCC2CN3C(=O)C[C@@H]2N=C(c3ccc(Cl)cc3)c3c(sc(C)c3C)-n3c(C)nnc32)cc1 (stereo partly drawn) [Compound 226, (E)-1-(5-(2-((S)-4-(4-chlorophenyl)-2,3,9-trimethyl-6H-thieno[3,2-f][1,2,4]triazolo[4,3-a][1,4]diazepin-6-yl)acetyl)-2,5-diazabicyclo[2.2.2]octan-2-yl)-4-(4-methoxyphenyl)but-2-ene-1,4-dione]
- DC50 (BRD4 short; [1]): 10 to 100 nM
- DC50 (BRD4 long; [2]): 10 to 100 nM
